Test results taken from ChEMBL document CHEMBL1201862, “PubChem BioAssay data set” (2004).
Counter-ions that a name gives are not always drawn. Calls of active or inactive are those of the source.

Experiments:
Cytochrome P450 3A4 = Cytochrome P450 3A4 (Homo sapiens, UniProt P08684);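 also: CYP3A4 tested as one member of a cytochrome P450 panel screen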
Cytochrome P450 2C9 = Cytochrome P450 2C9 (Homo sapiens, UniProt P11712)
[1] = Luminescence Cell-Based Dose Retest to Confirm Inhibitors of Cancer Stem Cells. [Related pubchem assays (depositor defined):AID2717, AID2721]; format: functional; settings: Homo sapiens
[2] = system: Streptococcus sp. 'group A'; assay: Streptococcus pyogenes SK(-)GAS viability under kanamycin – luminescence, BacTiterGlo, confirmation, counter-screen for streptokinase expression inhibitor project, dose response (AID 1900); format: functional, organism-based
Streptokinase A = biological target: T1, Streptokinase A (Streptococcus pyogenes serotype M1, UniProt P10520); assay: viability-normalized secreted streptokinase activity reduction – plasminogen activation absorbance, OD405, dose response (AID 1914); format: functional, Streptococcus pyogenes M1 GAS;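 also: secreted streptokinase activity via plasminogen activation per viability signal from cell pellet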
T1 sequence (P10520 whole entry): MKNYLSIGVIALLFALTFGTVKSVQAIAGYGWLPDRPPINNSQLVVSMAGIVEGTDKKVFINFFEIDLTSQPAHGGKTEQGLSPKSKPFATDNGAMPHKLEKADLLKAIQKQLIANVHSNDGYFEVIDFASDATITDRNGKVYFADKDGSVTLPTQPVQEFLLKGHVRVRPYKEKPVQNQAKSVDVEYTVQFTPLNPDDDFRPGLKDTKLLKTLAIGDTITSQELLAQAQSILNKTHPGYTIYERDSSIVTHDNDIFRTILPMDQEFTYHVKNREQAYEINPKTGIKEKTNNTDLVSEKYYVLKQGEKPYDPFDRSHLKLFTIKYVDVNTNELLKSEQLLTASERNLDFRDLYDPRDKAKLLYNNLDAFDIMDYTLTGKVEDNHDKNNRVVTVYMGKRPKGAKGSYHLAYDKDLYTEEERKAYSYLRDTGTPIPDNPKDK

Streptococcus = assay: GAS UMAA2166 growth inhibition – luminescence, BacTiterGlo, counter-screen for streptokinase expression inhibitor project, dose response (AID 1915); format: functional, organism-based;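 also: potency for reduction of bacterial viability or growth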
[3] = biological target: T2, Heat shock factor protein 1 (Mus musculus, UniProt P38532); assay: decrease of HSF1-responsive luciferase luminescence – cell-based, NIH3T3, dose retest, confirmation (AID 2382); format: functional;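 also: NIH3T3 fibroblasts with HSF1-driven luciferase reporter stressed by proteasome inhibitor MG132; luminescence from HSF1-driven luciferase expression after 8 hours of MG132 stress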
T2 sequence (P38532 whole entry): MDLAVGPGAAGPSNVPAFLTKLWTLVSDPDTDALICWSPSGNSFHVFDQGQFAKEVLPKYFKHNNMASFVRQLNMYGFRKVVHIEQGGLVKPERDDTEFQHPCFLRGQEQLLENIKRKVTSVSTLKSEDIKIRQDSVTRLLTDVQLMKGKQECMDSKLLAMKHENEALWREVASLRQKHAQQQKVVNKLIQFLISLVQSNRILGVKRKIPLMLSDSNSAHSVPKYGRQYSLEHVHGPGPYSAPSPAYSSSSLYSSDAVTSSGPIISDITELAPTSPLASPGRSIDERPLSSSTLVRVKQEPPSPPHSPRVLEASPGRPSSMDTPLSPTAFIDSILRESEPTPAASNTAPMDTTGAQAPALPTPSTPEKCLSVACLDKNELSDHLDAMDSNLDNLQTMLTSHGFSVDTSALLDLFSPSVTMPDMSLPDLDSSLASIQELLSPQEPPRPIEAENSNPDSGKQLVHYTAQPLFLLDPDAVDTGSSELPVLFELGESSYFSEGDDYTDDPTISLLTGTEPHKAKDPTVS

[4] = biological target: T3, Rac GTPase-activating protein 1 (Homo sapiens, UniProt Q9H0H5); assay: blockers of MgcRacGAP-driven Rac1 GTP hydrolysis – biochemical, ADP Hunter fluorescence, primary and confirmatory, confirmation (AID 624330); format: functional
T3 sequence (Q9H0H5 whole entry): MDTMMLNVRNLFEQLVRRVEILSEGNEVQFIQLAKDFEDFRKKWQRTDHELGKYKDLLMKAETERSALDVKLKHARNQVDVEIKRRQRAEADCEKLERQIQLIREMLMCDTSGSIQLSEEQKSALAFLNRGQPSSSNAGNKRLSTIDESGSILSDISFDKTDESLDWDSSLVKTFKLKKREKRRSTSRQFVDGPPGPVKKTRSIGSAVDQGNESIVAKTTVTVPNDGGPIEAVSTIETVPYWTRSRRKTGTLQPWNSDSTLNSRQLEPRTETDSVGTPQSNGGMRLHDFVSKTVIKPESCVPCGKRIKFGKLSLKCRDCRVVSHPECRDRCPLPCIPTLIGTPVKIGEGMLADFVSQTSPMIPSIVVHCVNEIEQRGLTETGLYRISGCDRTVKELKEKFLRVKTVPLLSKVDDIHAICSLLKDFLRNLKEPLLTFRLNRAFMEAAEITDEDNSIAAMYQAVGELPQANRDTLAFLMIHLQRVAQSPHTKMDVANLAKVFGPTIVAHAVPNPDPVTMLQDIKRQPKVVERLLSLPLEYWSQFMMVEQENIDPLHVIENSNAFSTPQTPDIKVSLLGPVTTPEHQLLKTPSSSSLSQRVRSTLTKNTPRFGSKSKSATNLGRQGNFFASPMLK

[5] = Trypanosoma cruzi growth suppression in host cells – NIH3T3 host cells, beta-gal luminescence, confirmation (AID 2044); format: functional, cell-based;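 also: intracellular parasites grown in NIH/3T3 mouse fibroblasts as host cells; luminescent beta-galactosidase reporter signal from transgenic T. cruzi replicating inside host cells; inhibitors lower the luminescence signal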
[6] = NIH3T3 cell viability loss – ATP luminescence, mouse fibroblasts, counter-screen, dose response (AID 2010); format: functional, cell-based;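 also: cells exposed to compound for about 90 hours before reading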
Cytochrome P450 2D6 = Cytochrome P450 2D6 (Homo sapiens, UniProt P10635);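 also: CYP2D6 member of a cytochrome P450 panel assay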
Cytochrome P450 2D6, sequence (P10635 whole entry): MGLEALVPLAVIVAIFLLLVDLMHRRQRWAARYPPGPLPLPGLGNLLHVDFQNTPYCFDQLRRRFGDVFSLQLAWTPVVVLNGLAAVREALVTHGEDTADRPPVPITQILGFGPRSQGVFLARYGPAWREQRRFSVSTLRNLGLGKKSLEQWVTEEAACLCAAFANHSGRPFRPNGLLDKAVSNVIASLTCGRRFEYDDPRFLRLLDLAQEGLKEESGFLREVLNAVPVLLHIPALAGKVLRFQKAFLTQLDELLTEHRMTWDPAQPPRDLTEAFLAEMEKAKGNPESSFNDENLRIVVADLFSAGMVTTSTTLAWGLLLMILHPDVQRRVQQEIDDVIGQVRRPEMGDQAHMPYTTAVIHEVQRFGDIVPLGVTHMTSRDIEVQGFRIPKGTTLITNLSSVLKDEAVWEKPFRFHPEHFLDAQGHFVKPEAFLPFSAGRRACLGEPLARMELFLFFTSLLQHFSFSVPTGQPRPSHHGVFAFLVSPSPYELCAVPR

Cytochrome P450 2C9, sequence (P11712 whole entry): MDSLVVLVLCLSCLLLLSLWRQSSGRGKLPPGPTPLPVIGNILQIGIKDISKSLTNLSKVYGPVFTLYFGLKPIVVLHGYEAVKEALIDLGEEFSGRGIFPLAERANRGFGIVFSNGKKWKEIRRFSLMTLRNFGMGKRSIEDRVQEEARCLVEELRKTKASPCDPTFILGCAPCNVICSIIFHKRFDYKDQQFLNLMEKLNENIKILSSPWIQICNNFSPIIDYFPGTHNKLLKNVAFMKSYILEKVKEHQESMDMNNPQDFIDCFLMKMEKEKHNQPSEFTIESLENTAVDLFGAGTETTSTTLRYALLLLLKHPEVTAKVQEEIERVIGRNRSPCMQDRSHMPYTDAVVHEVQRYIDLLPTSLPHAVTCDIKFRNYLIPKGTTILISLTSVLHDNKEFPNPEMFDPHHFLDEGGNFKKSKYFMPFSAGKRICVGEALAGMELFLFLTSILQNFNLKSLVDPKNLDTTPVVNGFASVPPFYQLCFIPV
Cytochrome P450 3A4, sequence (P08684 whole entry): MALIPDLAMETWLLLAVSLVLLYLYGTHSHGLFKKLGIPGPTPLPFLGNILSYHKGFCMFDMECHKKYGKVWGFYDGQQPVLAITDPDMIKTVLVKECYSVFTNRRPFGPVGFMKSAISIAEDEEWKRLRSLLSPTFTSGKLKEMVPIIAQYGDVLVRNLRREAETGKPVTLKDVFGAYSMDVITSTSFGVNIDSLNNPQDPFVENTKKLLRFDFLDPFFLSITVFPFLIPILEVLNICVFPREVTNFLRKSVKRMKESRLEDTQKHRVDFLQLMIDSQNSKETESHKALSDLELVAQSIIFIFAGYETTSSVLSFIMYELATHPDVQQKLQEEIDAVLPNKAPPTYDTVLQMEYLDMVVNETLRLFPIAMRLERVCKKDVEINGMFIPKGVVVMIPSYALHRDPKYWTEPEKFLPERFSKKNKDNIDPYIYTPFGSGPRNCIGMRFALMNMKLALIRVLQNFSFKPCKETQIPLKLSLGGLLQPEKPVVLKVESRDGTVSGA

COc1cccc(Nc2ncc3ncc(=O)n(C4CC4)c3n2)c1
AC50 (Cytochrome P450 3A4): 6.31 µM (inconclusive) | AC50 (Cytochrome P450 2C9): 15.8 µM (inconclusive)

CC/C(=C(\c1ccccc1)c1ccc(OCCN(C)C)cc1)c1ccccc1 [TAMOXIFEN CITRATE]
AC50 [1]: 4.53 µM (active)

COc1cc(C)ccc1OCCCOc1ccccc1Br
EC50 [2]: > 150 µM (not active) | EC50 (Streptokinase A): > 150 µM (not active) | EC50 (Streptococcus): > 150 µM (not active) | AC50 (Cytochrome P450 2C9): 39.8 µM (inconclusive)

O=C(c1ccco1)N1CCC[C@@]2(CCN(Cc3ccncc3)C2)C1
AC50 (Cytochrome P450 3A4): 15.8 µM (inconclusive)

CCOC(=O)c1sc2ncnc(N3CCN(c4ccc(OC)cc4)CC3)c2c1C
EC50 [2]: 7.62 µM (active) | EC50 (Streptokinase A): > 150 µM (not active) | EC50 (Streptococcus): > 150 µM (not active)

CC(C)(C)NC(=O)c1c(F)c(F)c(F)c(F)c1F
EC50 [3]: > 195 µM (not active)

O=C(CNC(=O)c1ccccc1Br)N/N=C/c1ccc(O)cc1
IC50 [4]: 58.7 µM (active)

CCO/C(C)=C1/SC(=S)NC1=O
EC50 [3]: > 195 µM (not active)

COc1cc(OC)nc(Oc2ccccc2C(=O)Oc2cccc(C)c2)n1
AC50 (Cytochrome P450 3A4): 17.8 µM (inconclusive)

CCOC(=O)c1c(NC(=O)CSc2nnc(-c3c[nH]c4ccccc34)n2C)sc2c1CCCC2
EC50 [3]: > 195 µM (not active)

Cc1ccn2c(Nc3ccc4c(c3)OCO4)c(-c3ccc(O)cc3)nc2c1
IC50 [4]: 39.7 µM (active)

Cc1ccc(-c2cc(C(=O)NCc3ccc4c(c3)OCO4)no2)cc1
AC50 [1]: > 195 µM (inactive)

Cc1[nH]c2ccccc2c1-c1csc(NC(=O)CSCCO)n1
IC50 [4]: 122 µM (active)

CCc1ccc(-c2cc(C)no2)cc1S(=O)(=O)Nc1cccc(CN2CCCC2)c1
EC50 [2]: > 150 µM (not active) | EC50 (Streptokinase A): > 150 µM (not active) | EC50 (Streptococcus): > 150 µM (not active)

Cc1ccc2nc(Cl)c3cc(C(=O)N(CCN(C)C)Cc4ccco4)sc3c2c1
EC50 [5]: 0.123 µM (active) | EC50 [6]: > 60 µM (not active) | AC50 [1]: 1.86 µM (active)

CCCCNC(=O)c1ccc(NC(C)=O)c(Cl)c1
EC50 [2]: > 150 µM (not active) | EC50 (Streptokinase A): > 150 µM (not active) | EC50 (Streptococcus): > 150 µM (not active)

CCCCCCSc1ccc(-c2nc3cnccn3c2NCCCC)cc1
AC50 [1]: 3.59 µM (active)

COc1ccc(CN2CCN(Cc3ccco3)CC2)cc1OC
IC50 [4]: 69.2 µM (active)

Cc1nc2sc3c(NCc4ccco4)ncnc3c2c2c1COC(C)(C)C2
EC50 [3]: > 195 µM (not active)

Cc1ccc(S(=O)(=O)N[C@H]2COC(=O)[C@@H](C)COC(=O)[C@H](C)NC(=O)C/C=C\[C@H]2C)cc1
AC50 (Cytochrome P450 3A4): 3.98 µM (inconclusive)

COc1cccc(N(C(=O)c2cccs2)c2nc3ccccc3s2)c1
EC50 [3]: > 195 µM (not active)

COc1ccc(OC(=O)C2CC(=O)N(c3ccc(C)cc3)C2)cc1 (stereo not drawn)
IC50 [4]: 48.3 µM (active)

COc1ncc2nc(C)c(=O)n(CCc3ccccc3)c2n1
AC50 (Cytochrome P450 3A4): 15.8 µM (inconclusive) | AC50 (Cytochrome P450 2C9): 20 µM (inconclusive)

COc1ccc(-n2c(S)nnc2-c2cnccn2)cc1
AC50 (Cytochrome P450 3A4): 14.1 µM (inconclusive)

CCN1CCc2c(OCc3ccccc3)cccc2C1=O
EC50 [3]: 37.3 µM (active)

Oc1ccnc2cccc(Cc3ccccc3)c12
AC50 (Cytochrome P450 2D6): 0.00708 µM (inconclusive) | AC50 (Cytochrome P450 3A4): 28.2 µM (inconclusive) | AC50 (Cytochrome P450 2C9): 15.8 µM (inconclusive)

O=c1cnc2cnc(N3CCOCC3)nc2n1Cc1ccc(F)cc1
AC50 (Cytochrome P450 3A4): 12.6 µM (inconclusive) | AC50 (Cytochrome P450 2C9): 25.1 µM (inconclusive)

C/C(=N\NC(=O)COc1ccc(C)cc1C(C)C)c1cc2ccccc2o1
EC50 [2]: 15.5 µM (active) | EC50 (Streptokinase A): 30.5 µM (active) | EC50 (Streptococcus): 24.1 µM (active)

CS(=O)(=O)N1CCC2(CC1)CN(C(=O)Nc1cccc(C#N)c1)C2
AC50 (Cytochrome P450 3A4): 0.0251 µM (inconclusive)

COc1ccccc1CN1CCC2(CC1)CCN(C(=O)c1csnn1)CC2
AC50 (Cytochrome P450 3A4): 31.6 µM (inconclusive)

O=C(c1cccnc1)N1CCN(Cc2cccc(Br)c2)CC1
IC50 [4]: 117 µM (active)

CCOC(=O)n1c(=O)n(Cc2c(Cl)cccc2Cl)c2ccccc21
AC50 (Cytochrome P450 3A4): 15.8 µM (inconclusive)

CN(C)c1ncc2nc(-c3ccccc3)c(=O)n(C[C@H]3CCCO3)c2n1
AC50 (Cytochrome P450 2D6): 12.6 µM (inconclusive) | AC50 (Cytochrome P450 3A4): 12.6 µM (inconclusive) | AC50 (Cytochrome P450 2C9): 20 µM (inconclusive)

Cn1cccc1-c1nc2ccccc2n1Cc1ccccc1
AC50 [1]: 10.4 µM (active)

COc1ccc(-c2nc(NC(C)=O)sc2-c2ccc(OC)cc2)cc1
EC50 [2]: 6.7 µM (active) | EC50 (Streptokinase A): 3.44 µM (active) | EC50 (Streptococcus): 14.6 µM (active)

c1ccc(N2CC[C@@]3(CCCNC3)C2)nc1
AC50 (Cytochrome P450 3A4): 15.8 µM (inconclusive)

O=C1C=C(NC(=O)Nc2ccc(Cl)c(Cl)c2)CCC1
EC50 [2]: 18 µM (active) | EC50 (Streptokinase A): > 150 µM (not active) | EC50 (Streptococcus): > 150 µM (not active)

Oc1cc(Br)ccc1/C=N/c1ccc(N2CCCCC2)cc1
IC50 [4]: 5.88 µM (active)

CSc1ccc2c(c1)C(N1CCN(C)CC1)Cc1ccccc1S2 (stereo not drawn)
AC50 [1]: 11.1 µM (active)

O=C1C(O)=C(C(C2=C(O)C(=O)c3ccccc3C2=O)c2ccc(Cl)cc2)C(=O)c2ccccc21
AC50 (Cytochrome P450 2D6): 2.51 µM (inconclusive) | AC50 (Cytochrome P450 3A4): 3.16 µM (inconclusive) | AC50 (Cytochrome P450 2C9): 3.16 µM (inconclusive)

Cc1ccccc1OCC(O)Cn1c2ccccc2c2ccccc21 (stereo not drawn)
AC50 [1]: 5.66 µM (active)

COc1cccc(O)c1CN1CCC(C(=O)Nc2ccc(-c3cccc(C)c3)cc2)CC1
AC50 [1]: 6.71 µM (active)

COc1cc(F)ccc1CN1CCC(n2nccc2NC(=O)C2CCOC2)CC1 (stereo not drawn)
EC50 [2]: > 150 µM (not active) | EC50 (Streptokinase A): > 150 µM (not active) | EC50 (Streptococcus): > 150 µM (not active)

Cc1c(N=Nc2ccc(O)cc2)c(=O)n(-c2ccccc2)n1C
IC50 [4]: 19.8 µM (active)

COc1ccc(C(=O)NC(=S)Nc2ccc(N3CCOCC3)c(Cl)c2)cc1[N+](=O)[O-]
EC50 [2]: 1.73 µM (active) | EC50 (Streptokinase A): > 150 µM (not active) | EC50 (Streptococcus): 19.3 µM (active)

CCCCCCOC(=O)/C=C/c1c(C)nc(O)nc1O
EC50 [2]: 0.604 µM (active) | EC50 (Streptokinase A): > 150 µM (not active) | EC50 (Streptococcus): 4.6 µM (active)

Cc1ccc(S(=O)(=O)NCc2ccccc2)cc1
AC50 (Cytochrome P450 3A4): 31.6 µM (inconclusive)

COc1ccccc1N1CC(C(=O)Nc2nnc(SCC(=O)NCC3CCCO3)s2)CC1=O (stereo not drawn)
EC50 [2]: > 150 µM (not active) | EC50 (Streptokinase A): > 150 µM (not active) | EC50 (Streptococcus): > 150 µM (not active)

COc1ccc2cc3cc(C(=O)NCCN4CCN(c5ccccc5F)CC4)oc3nc2c1
AC50 (Cytochrome P450 2D6): 31.6 µM (inconclusive) | AC50 (Cytochrome P450 2C9): 22.4 µM (inconclusive)

COc1ccc(NC2CCCN(C(=O)C3(C)CCCCC3)C2)cc1 (stereo not drawn)
IC50 [4]: 80.7 µM (active)

COc1ccc(C(=O)CSc2nnc(CN3CCCCC3)n2-c2ccc(Cl)cc2)cc1OC
AC50 [1]: 2.91 µM (active)

Oc1ccc(/C=N/N=C/c2ccc(O)cc2)cc1
IC50 [4]: 77.6 µM (active)

Clc1ccc(-c2nnc(-c3ccccc3)c(-c3ccccc3)n2)cc1
AC50 [1]: 10.1 µM (active)
